In the NIST ThermoML archive (doi:10.1016/j.fluid.2013.09.030):

Tests used:
[1] = refractive index (Na D-line) (dimensionless); conditions: 298.15 K; 101.33 kPa; Liquid; Standard Abbe refractometry
[2] = Liquid; for mass density: 298.15 K, 101.33 kPa, Vibrating tube method; for vapor or sublimation pressure: Ebulliometric method (Recirculating still)
[3] = Boiling temperature at pressure P; conditions: Liquid, Ebulliometric method (Recirculating still)
[4] = refractive index (Na D-line) (dimensionless); xn = mol fraction of the nth substance listed; conditions: 298.15 K, 101 kPa, Liquid, Standard Abbe refractometry
[5] = xn = mol fraction of the nth substance listed; conditions: 298.15 K, 101 kPa, Liquid, Vibrating tube method

COC(=O)Oc1ccccc1 [methyl phenyl carbonate]
Conditions	mass density [kg/m3]	refractive index
[1]	–	1.4948
[2]	1143.63	–

[3]
Conditions	Boiling temperature at pressure P [°C]
3 kPa	105.66
5 kPa	118.02
10 kPa	136.72
15 kPa	148.41
20 kPa	157.08
25 kPa	164.10
30 kPa	170.01
35 kPa	174.97
40 kPa	179.58
45 kPa	183.76
50 kPa	187.52
55 kPa	190.94
60 kPa	194.06
65 kPa	197.11
70 kPa	199.87
75 kPa	202.31
80 kPa	204.76
85 kPa	207.20
90 kPa	209.54
95 kPa	211.70
100 kPa	213.56
101.3 kPa	214.33
102.1 kPa	214.51

COC(=O)Oc1ccccc1 [methyl phenyl carbonate] + CO
Conditions	mass density, [5] [kg/m3]	refractive index, [4]
x1 = 0.0501	842.07	1.3647
x1 = 0.1001	886.48	1.3885
x1 = 0.2002	953.27	1.4283
x1 = 0.3002	1000.92	1.45
x1 = 0.4003	1036.71	1.467
x1 = 0.5	1064.49	1.4748
x1 = 0.6013	1087.16	1.4801
x1 = 0.7008	1105.28	1.4848
x1 = 0.8003	1120.25	1.4877
x1 = 0.9015	1133.12	1.4915
x1 = 0.9471	1138.14	1.4929

CO [methanol]
Conditions	mass density [kg/m3]	refractive index
[1]	–	1.3267
[2]	786.69	–

Conditions	vapor or sublimation pressure [kPa]
[2], 338.12 K	101.3

COC(=O)OC [dimethyl carbonate]
Conditions	mass density [kg/m3]	refractive index
[1]	–	1.3666
[2]	1063.26	–

Conditions	vapor or sublimation pressure [kPa]
[2], 363.25 K	101.3

COC(=O)Oc1ccccc1 [methyl phenyl carbonate] + COC(=O)OC
Conditions	mass density, [5] [kg/m3]	refractive index, [4]
x1 = 0.0499	1069.88	1.3764
x1 = 0.1	1076.1	1.3863
x1 = 0.2001	1087.37	1.4038
x1 = 0.2999	1097.32	1.419
x1 = 0.4	1106.17	1.4336
x1 = 0.5002	1114.08	1.4463
x1 = 0.6	1121.17	1.4575
x1 = 0.7007	1127.6	1.468
x1 = 0.8003	1133.42	1.4774
x1 = 0.8991	1138.71	1.4853
x1 = 0.9493	1141.22	1.4901
